Laboratory results published in patent US20080009435A1, “Synthetic methods for aplidine and new antitumoral derivatives, methods of making and using them” (Pharma Mar, S.A., a Spain corporation, priority 2000, published 2008).
Like-named read-outs stand apart in the source and are kept apart here. *1 amine or outer side, *2 acyl side, *3 side chain or, on linkers, in order; H or OH if unused. Where a SMILES comes first, the peptide text is derived from it. Bridges are numbered along the chain shown (N, C = ends). [ ]: non-standard residue; d: D form. The star is where a group is joined. ξ: configuration not given here. X1 = CC[C@H](C)[C@@H](N[*:1])[C@@H](O)CC(=O)O[C@H](C(=O)[C@H](C)C(=O)[*:2])C(C)C; X2 = CC[C@H](C)[C@@H](N[*:1])[C@@H](O)CC(=O)[*:2]; X4 = CC(C)[C@H](N[*:1])C(=O)[C@H](C)C(=O)[*:2]; NMeY = CN[C@@H](Cc1ccc(O)cc1)C(=O)O; X6 = O=C1NC2CSC(CCCCC(=O)*)C2N1; dNMeL = CN[C@H](CC(C)C)C(=O)O; Hiv = CC(C)[C@H](O)C(=O)O; Isobutyryl = CC(C)C(=O)*; Pyruvoyl = CC(=O)C(=O)*; dLac = C[C@@H](O)C(=O)O; Cbz = O=C(OCc1ccccc1)*; Hexanoyl = CCCCCC(=O)*; Boc = CC(C)(C)OC(=O)*; Lac = C[C@H](O)C(=O)O; CO = O=C([*:1])[*:2]; X5 = S=C(Nc1ccccc1)*; Butyryl = CCCC(=O)*; NHPh = c1ccc(N*)cc1; ξP = O=C(O)C1CCCN1

Key:
[1] = system: A549 human lung carcinoma; experiment: Cytotoxicity IC50 (after Berjeron et al)
Excerpt: (§1) Methodology: after Berjeron et al, Biochem and Bioph Res. Comm., 1984, 121, 3, 848-854.
(§2) P388=Murine lymphoma. A549=human lung carcinoma. HT-29=human colon carcinoma. MEL-28=human melanoma.
(§3) A549=human lung carcinoma. HT-29=human colon carcinoma. MEL-28=human melanoma.

[2] = system: HT-29 human colon carcinoma; experiment: Cytotoxicity IC50 (after Berjeron et al)
Excerpt: as §1, §2, §3

[3] = Homo sapiens, A549, read-out: Cytotoxicity of aplidine derivatives IC50 (Molar) A549
[4] = Homo sapiens, HT-29, read-out: Cytotoxicity of aplidine derivatives IC50 (Molar) HT29
[5] = read-out: Cytotoxicity of aplidine derivatives IC50 (Molar) A549, A549
[6] = read-out: Cytotoxicity of aplidine derivatives IC50 (Molar) HT29, HT29

Compound | IC50 [1, 3] | IC50 [2, 4] | also measured
CC[C@H](C)[C@H]1NC(=O)[C@@H](NC(=O)[C@@H](CC(C)C)N(C)C(=O)CCCCC2SCC3NC(=O)NC32)[C@@H](C)OC(=O)[C@H](Cc2ccc(OC)cc2)N(C)C(=O)[C@@H]2CCCN2C(=O)[C@H](CC(C)C)NC(=O)[C@@H](C)C(=O)[C@H](C(C)C)OC(=O)C[C@@H]1O (stereo partly shown) [8BISAPL1, [Biotin]^8-didemnin A] (X6-[dNMeL]T[X1]LP[NMeY](Me); ester 2-C) | 4270 pM | 4270 pM | –
[Hiv]^3-[Ala]^9 aplidine [9ASHPL1] | – | – | IC50 [1, 5]: 916 pM; IC50 [2, 6]: 916 pM
[NVa-Pro]^9-aplidine [9NVSAPL1] | – | – | IC50 [1, 5]: 439 pM; IC50 [2, 6]: 439 pM
CCCCCC(=O)N(C)[C@H](CC(C)C)C(=O)N[C@@H]1C(=O)N[C@H]([C@@H](C)CC)[C@@H](O)CC(=O)O[C@@H](C(C)C)C(=O)N[C@@H](CC(C)C)C(=O)N2CCC[C@H]2C(=O)N(C)[C@@H](Cc2ccc(OC)cc2)C(=O)O[C@@H]1C [8HSHPL1, [Hiv]^3-[hexanoyl]^8-didemnin A] (Hexanoyl-[dNMeL]T[X2][Hiv]LP[NMeY](Me); ester 2-C) | 10100 pM | 10100 pM | –
[Hiv]^3-[NVa-Pro]^9-aplidine [9NVSHPL1] | – | – | IC50 [1, 5]: 923 pM; IC50 [2, 6]: 923 pM
CC[C@H](C)[C@H]1NC(=O)[C@@H](NC(=O)[C@@H](CC(C)C)N(C)C(=S)Nc2ccccc2)[C@@H](C)OC(=O)[C@H](Cc2ccc(OC)cc2)N(C)C(=O)[C@@H]2CCCN2C(=O)[C@H](CC(C)C)NC(=O)[C@@H](C)C(=O)[C@H](C(C)C)OC(=O)C[C@@H]1O [8PTSAPL1, [Pheylthiourea]^8-didemnin A] (X5-[dNMeL]T[X1]LP[NMeY](Me); ester 2-C) | 927 pM | 927 pM | –
[coumarin]^8-didemnin A [8CSAPL1] | – | – | IC50 [1, 5]: 941 pM; IC50 [2, 6]: 941 pM
CCCCNC(=S)N(C)[C@H](CC(C)C)C(=O)N[C@@H]1C(=O)N[C@H]([C@@H](C)CC)[C@@H](O)CC(=O)O[C@@H](C(C)C)C(=O)[C@H](C)C(=O)N[C@@H](CC(C)C)C(=O)N2CCC[C@H]2C(=O)N(C)[C@@H](Cc2ccc(OC)cc2)C(=O)O[C@@H]1C [8BTSAPL1, [Butylthiourea]^8-didemnin A] | 945 pM | 945 pM | –
CC[C@H](C)[C@H]1NC(=O)[C@@H](NC(=O)[C@@H](CC(C)C)N(C)C(=O)C2CCCN2C(=O)[C@H](C)O)[C@@H](C)OC(=O)[C@H](Cc2ccc(OC)cc2)N(C)C(=O)[C@@H]2CCCN2C(=O)[C@H](CC(C)C)NC(=O)[C@H](C(C)C)NC(=O)C[C@@H]1O (stereo partly drawn) [9LSVPL1(L), [Val]^3-[L-Lac]^9-aplidine] (H-[Lac][ξP][dNMeL]T[X2]VLP[NMeY](Me); ester 4-C) | 948 pM | 948 pM | –
CC[C@H](C)[C@H]1NC(=O)[C@@H](NC(=O)[C@@H](CC(C)C)N2CC[C@]3(CCCN3C(=O)C(C)C)C2=O)[C@@H](C)OC(=O)[C@H](Cc2ccc(OC)cc2)N(C)C(=O)[C@@H]2CCCN2C(=O)[C@H](CC(C)C)NC(=O)[C@H](C(C)C)OC(=O)C[C@@H]1O [9SISHPL1, [Hiv]^3-[(5R)-1-(tert-buthoxycarbonyl)-7-[(1R)-1-carboxy-3-methylbutyl]-6-oxo-1,7-diazaspiro[4,4]nonane]^7-9-aplidine] | 93800 pM | 93800 pM | –
CC[C@H](C)[C@H]1NC(=O)[C@@H](NC(=O)[C@@H](CC(C)C)N(C)C(=O)[C@@H]2CCCN2C(=O)C(C)C)[C@@H](C)OC(=O)[C@H](Cc2ccc(OC)cc2)N(C)C(=O)[C@@H]2CCCN2C(=O)[C@H](CC(C)C)NC(=O)[C@H](C(C)C)OC(=O)C[C@@H]1O [9ISHPL1, [Hiv]^3-[Isobutyryl]^9-aplidine] (Isobutyryl-P[dNMeL]T[X2][Hiv]LP[NMeY](Me); ester 3-C) | 474 pM | 474 pM | –
CC[C@H](C)[C@H]1NC(=O)[C@@H](NC(=O)[C@@H](CC(C)C)N2CC[C@]3(CCCN3C(=O)C(C)=O)C2=O)[C@@H](C)OC(=O)[C@H](Cc2ccc(OC)cc2)N(C)C(=O)[C@@H]2CCCN2C(=O)[C@H](CC(C)C)NC(=O)[C@@H](C)C(=O)[C@H](C(C)C)OC(=O)C[C@@H]1O [9SPSAPL1, [(5R)-1-(pyruvyl)-7-[(1R)-1-carboxy-3-methylbutyl]-6-oxo-1,7-diazaspiro[4,4]nonane]^7-9-aplidine] | 8550 pM | 8900 pM | –
CC[C@H](C)[C@H]1NC(=O)[C@@H](NC(=O)[C@@H](CC(C)C)N2CC[C@]3(CCCN3C(=O)C(C)=O)C2=O)[C@@H](C)OC(=O)[C@H](Cc2ccc(OC)cc2)N(C)C(=O)[C@@H]2CCCN2C(=O)[C@H](CC(C)C)NC(=O)[C@H](C(C)C)OC(=O)C[C@@H]1O [9SPSHPL1, [Hiv]^3-[(5R)-1-(pyruvyl)-7-[(1R)-1-carboxy-3-methylbutyl]-6-oxo-1,7-diazaspiro[4,4]nonane]^7-9-aplidine] | 93800 pM | 93800 pM | –
CC[C@H](C)[C@H]1NC(=O)[C@@H](NC(=O)[C@@H](CC(C)C)N2CC[C@]3(CCCN3C(=O)OC(C)(C)C)C2=O)[C@@H](C)OC(=O)[C@H](Cc2ccc(OC)cc2)N(C)C(=O)[C@@H]2CCCN2C(=O)[C@H](CC(C)C)NC(=O)[C@H](C(C)C)OC(=O)C[C@@H]1O [9SBSHPL1] | 4560 pM | 4560 pM | –
CCCC(=O)N(C)[C@H](CC(C)C)C(=O)N[C@@H]1C(=O)N[C@H]([C@@H](C)CC)[C@@H](O)CC(=O)O[C@@H](C(C)C)C(=O)N[C@@H](CC(C)C)C(=O)N2CCC[C@H]2C(=O)N(C)[C@@H](Cc2ccc(OC)cc2)C(=O)O[C@@H]1C [8BSHPL1, [Hiv]^3-[Butyryl]^8-didemnin A] (Butyryl-[dNMeL]T[X2][Hiv]LP[NMeY](Me); ester 2-C) | 1040 pM | 1040 pM | –
CC[C@H](C)[C@H]1NC(=O)[C@@H](NC(=O)[C@@H](CC(C)C)N(C)C(=O)[C@@H]2CCCN2C(=O)C(C)=O)[C@@H](C)OC(=O)[C@H](Cc2ccc(OC)cc2)N(C)C(=O)[C@@H]2CCCN2C(=O)[C@H](CC(C)C)NC(=O)[C@@H](C)C(=O)[C@H](C(C)C)NC(=O)C[C@@H]1O [SNPL1, [Aip]^3-Aplidine] (Pyruvoyl-P[dNMeL]T[X2][X4]LP[NMeY](Me); ester 3-C) | – | – | IC50 ([1]; Homo sapiens, A549, read-out: Cytotoxicity of [aa3]-aplidine Congeners IC50 (Molar) A549): 901 pM; IC50 ([2]; Homo sapiens, HT-29, read-out: Cytotoxicity of [aa3]-aplidine Congeners IC50 (Molar) HT29): 901 pM
[Gly]^8-[coumarin]^9-didemnin A [8G9CSAPL1] | – | – | IC50 [1, 5]: 4260 pM; IC50 [2, 6]: 4260 pM
CC[C@H](C)[C@H]1NC(=O)[C@@H](NC(=O)[C@@H](CC(C)C)N(C)C(=O)OCc2ccccc2)[C@@H](C)OC(=O)[C@H](Cc2ccc(OC)cc2)N(C)C(=O)[C@@H]2CCCN2C(=O)[C@H](CC(C)C)NC(=O)[C@@H](C)C(=O)[C@H](C(C)C)NC(=O)C[C@@H]1O [SNPL3, [Aip]^3 Z-Didemnin A] (Cbz-[dNMeL]T[X2][X4]LP[NMeY](Me); ester 2-C) | 92.9 pM | 92.9 pM | –
CC[C@H](C)[C@H]1NC(=O)[C@@H](NC(=O)[C@@H](CC(C)C)N(C)C(=O)C2CCCN2C(=O)[C@H](C)O)[C@@H](C)OC(=O)[C@H](Cc2ccc(OC)cc2)N(C)C(=O)[C@@H]2CCCN2C(=O)[C@H](CC(C)C)NC(=O)[C@H](C(C)C)OC(=O)C[C@@H]1O (stereo partly drawn) [9LSHPL1(L), [Hiv]^3-[L-Lac]^9-aplidine, reference compound] (H-[Lac][ξP][dNMeL]T[X2][Hiv]LP[NMeY](Me); ester 4-C) | 947 pM | 947 pM | –
CC[C@H](C)[C@H]1NC(=O)[C@@H](NC(=O)[C@@H](CC(C)C)N(C)C(=O)Nc2ccccc2)[C@@H](C)OC(=O)[C@H](Cc2ccc(OC)cc2)N(C)C(=O)[C@@H]2CCCN2C(=O)[C@H](CC(C)C)NC(=O)[C@@H](C)C(=O)[C@H](C(C)C)OC(=O)C[C@@H]1O [8PUSAPL1, [Phenylurea]^8-didemnin A] ({NHPh-CO}-[dNMeL]T[X1]LP[NMeY](Me); ester 2-C) | 94.2 pM | 94.2 pM | –
CC[C@H](C)[C@H]1NC(=O)[C@@H](NC(=O)[C@@H](CC(C)C)N(C)C(=O)[C@@H]2CCCN2C(=O)OC(C)(C)C)[C@@H](C)OC(=O)[C@H](Cc2ccc(OC)cc2)N(C)C(=O)[C@@H]2CCCN2C(=O)[C@H](CC(C)C)NC(=O)[C@H](C(C)C)OC(=O)C[C@@H]1O [8PSHPL2, [Hiv]^3-[Boc-Pro]^8-didemnin A] (Boc-P[dNMeL]T[X2][Hiv]LP[NMeY](Me); ester 3-C) | 922 pM | 922 pM | –
CC[C@H](C)[C@H]1NC(=O)[C@@H](NC(=O)[C@@H](CC(C)C)N(C)C(=O)[C@@H](NC(=O)C(C)C)C(C)C)[C@@H](C)OC(=O)[C@H](Cc2ccc(OC)cc2)N(C)C(=O)[C@@H]2CCCN2C(=O)[C@H](CC(C)C)NC(=O)[C@H](C(C)C)OC(=O)C[C@@H]1O [8V9ISHPL1, [Hiv]^3-[Val]^8-[Isobutyryl]^9-didemnin A] (Isobutyryl-V[dNMeL]T[X2][Hiv]LP[NMeY](Me); ester 3-C) | 9460 pM | 9460 pM | –
CC[C@H](C)[C@H]1NC(=O)[C@@H](NC(=O)[C@@H](CC(C)C)N(C)C(=O)[C@@H](NC(=O)OC(C)(C)C)C(C)C)[C@@H](C)OC(=O)[C@H](Cc2ccc(OC)cc2)N(C)C(=O)[C@@H]2CCCN2C(=O)[C@H](CC(C)C)NC(=O)[C@H](C(C)C)OC(=O)C[C@@H]1O [8VSHPL2, [Hiv]^3-[Boc-Val]^8-didemnin A] (Boc-V[dNMeL]T[X2][Hiv]LP[NMeY](Me); ester 3-C) | 9210 pM | 9210 pM | –
CC[C@H](C)[C@H]1NC(=O)[C@@H](NC(=O)[C@@H](CC(C)C)N(C)C(=O)C2CCCN2C(=O)[C@@H](C)O)[C@@H](C)OC(=O)[C@H](Cc2ccc(OC)cc2)N(C)C(=O)[C@@H]2CCCN2C(=O)[C@H](CC(C)C)NC(=O)[C@H](C(C)C)OC(=O)C[C@@H]1O (stereo partly drawn) [9LSHPL1(D), [Hiv]^3-[D-Lac]^9-aplidine] (H-[dLac][ξP][dNMeL]T[X2][Hiv]LP[NMeY](Me); ester 4-C) | 947 pM | 947 pM | –
[Hiv]^3-[Z-NVa-Pro]^9-aplidine [9NVSHPL2] | – | – | IC50 [1, 5]: 8220 pM; IC50 [2, 6]: 8220 pM
[Hiv]^3-[Z-Ala]^9-aplidine [9ZASHPL2] | – | – | IC50 [1, 5]: 4210 pM; IC50 [2, 6]: 4210 pM
